Reference: patent publication US10351548B2, “2-oxo-1,2-dihydropyridine-3-carboxamide compounds and their use as inhibitors of PDK1” (INTERNATIONAL SOCIETY FOR DRUG DEVELOPMENT S.R.L., priority 2015, dated 2019)

Experiments:
PDK1 Direct kinase = PDK1 Direct kinase (Homo sapiens (Human), UniProt O15530); experiment: Kinase-specific FRET-based Z'-LYTE assay against PDK1 Direct kinase; format: biochemical; conditions: for IC50: read-out: PDK1 IC50
Description: The compounds of Formula (I) and (II) were tested in the biological test named Kinase-specific Z′-LYTE® assay (Invitrogen Corporation, Life Technologies).

U87MG cells = experiment: U87MG cell proliferation, MTS assay; format: cell-based, human; conditions: Homo sapiens, U-87 MG; 72 h, MTS assay; read-out: IC50 U87MG
Description: (§1) The U87MG cell line was obtained from the National Institute for Cancer Research of Genoa (Italy) and cultured in DMEM 10% FBS and 2 mM glutamine. To isolate GSCs, approximately 2.0×10^6 cells were suspended in 1 mL of a defined serum-free Neural Stem Cell (NSC) medium (Daniele, S., et al., Modulation of A1 and A2B adenosine receptor activity: a new strategy to sensitise glioblastoma stem cells to chemotherapy. Cell death & disease, 2014. 5(11): p. e1539). After 3-4 days of culture, the neurospheres were collected, suspended in NSC medium, dissociated into single cells, and plated for the assays. For the long-term treatment of cells, NSC or complete medium containing drugs was replaced every two to three days.
(§2) The human U87MG cells or GSCs were seeded at a density of 3×10^3 cells/well. After 24 h, the cells were treated from one to seven days with fresh growth medium containing different concentrations of SA16, SA23 or IB35. Following the treatment period, cell proliferation was determined using the MTS assay according to manufacturer's instruction. The absorbance of formazan at […] was measured in a colorimetric assay with an automated plate reader (Victor Wallac 2, Perkin Elmer). The results were calculated by subtracting the mean background from the values obtained from each evaluation and were expressed as the percentage of the control (untreated cells). Sigmoid dose-response curve was generated, from which the IC50 values were derived.
As representative GBM cell line, the above U87MG cells were used; this human cell line resulted an appropriate model to study the effects of PDK1 inhibition, because it is deficient for the tumour suppressor phosphatase and tensin homologue (PTEN), a negative regulator of the PI3K/AKT pathway (Wang, S. I., et al., Somatic mutations of PTEN in glioblastoma multiforme. Cancer research, 1997. 57(19): p. 4183-4186). To examine the effects of SA16, SA23 and IB35 on GBM cell growth/survival, U87MG cells were incubated with different concentrations of the new compounds (1 nM-10 μM) for 24 and 72 h. Specifically, U87MG cells were treated in complete medium with different concentrations of SA16, SA23 or IB35 (1 nM-10 μM) for 24 h (A) or 72 h (B). At the end of treatment, cell proliferation was measured using the MTS assay. The data are expressed as a percentage with respect to that of untreated cells (control), which was set to 100%, and are the mean values±SEM of three independent experiments, each performed in duplicate. The significance of the differences reported in FIGS. 1 and 2 was determined with a one-way ANOVA with Bonferroni post-test (* p<0.05, **p<0.01, *** p<0.001 vs. control cells).

[1] = tested on: GSCs isolated from U87MG cells; experiment: GSC proliferation, MTS assay; format: cell-based, human; conditions: Homo sapiens, U-87 MG, 168 h; seven days of treatment, MTS assay
Description: as §1, §2
The inhibition of PDK1 has been reported as potentially effective therapeutic approach to reduce self-renewal and propagation of GSCs (Signore, M., et al., Combined PDK1 and CHK1 inhibition is required to kill glioblastoma stem-like cells in vitro and in vivo. Cell death & disease, 2014. 5(5): p. e1223). On this basis, the effects of SA16, SA23 and IB35 on GSCs, isolated from U87MG cells as previously reported, were evaluated (Daniele, S., et al., Modulation of A1 and A28 adenosine receptor activity: a new strategy to sensitise glioblastoma stem cells to chemotherapy. Cell death & disease, 2014. 5(11): p. e1539). U87MG-derived GSCs were incubated with the indicated concentrations of IB35, SA23 or SA16 for four days (FIG. 8) or seven days (FIG. 9). At the end of the treatment periods, cell proliferation was measured using the MTS assay. The data were expressed as a percentage with respect to that of untreated cells (control), which was set to 100%, and are the mean values±SEM of three independent experiments, each performed in duplicate. IC50 values after seven days of treatment were calculated from sigmoid dose-response curve (FIG. 9). The significance of the differences was determined with a one-way ANOVA with Bonferroni post-test (** p<0.01, *** p<0.001 vs. control).

Chain of PDK1 Direct kinase (O15530 whole entry): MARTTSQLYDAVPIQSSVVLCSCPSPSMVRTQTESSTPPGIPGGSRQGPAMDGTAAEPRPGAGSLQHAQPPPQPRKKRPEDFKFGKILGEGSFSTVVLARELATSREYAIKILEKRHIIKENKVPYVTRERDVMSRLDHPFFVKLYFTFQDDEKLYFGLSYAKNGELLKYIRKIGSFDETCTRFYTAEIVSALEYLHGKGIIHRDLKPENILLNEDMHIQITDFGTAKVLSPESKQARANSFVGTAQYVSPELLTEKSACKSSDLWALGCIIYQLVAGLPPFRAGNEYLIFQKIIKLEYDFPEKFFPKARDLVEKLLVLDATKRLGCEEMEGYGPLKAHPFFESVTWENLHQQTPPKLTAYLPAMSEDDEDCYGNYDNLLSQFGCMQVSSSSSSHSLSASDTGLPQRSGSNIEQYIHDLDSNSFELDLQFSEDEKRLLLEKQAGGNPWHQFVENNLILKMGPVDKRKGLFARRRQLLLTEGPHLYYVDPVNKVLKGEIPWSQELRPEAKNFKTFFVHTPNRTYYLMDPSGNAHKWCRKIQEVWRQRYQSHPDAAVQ

Row | IC50 (U87MG cells) | IC50 [1] | Compound | inhibition at 10 µM (PDK1 Direct kinase) | IC50 (PDK1 Direct kinase)
1 | – | – | O=C1Nc2ccc(NC(=O)c3cccc(NC(=O)c4cccn(Cc5ccc(F)c(F)c5)c4=O)c3)cc2C1=Cc1cccs1 (mixture of isomers) [DD41, (E/Z)-1-(3,4-difluorobenzyl)-2-oxo-N-(3-((2-oxo-3-(thiophen-2-ylmethylene)indolin-5-yl)carbamoyl)phenyl)-1,2-dihydropyridine-3-carboxamide] | 26% | –
2 | – | – | O=C(CCCNC(=O)c1cccn(Cc2ccc(F)c(F)c2)c1=O)Nc1ccc2c(c1)C(=Cc1cccs1)C(=O)N2 (mixture of isomers) [DF9, (E/Z)-1-(3,4-difluorobenzyl)-2-oxo-N-(4-oxo-4-((2-oxo-3-(thiophen-2-ylmethylene)indolin-5-yl)amino)butyl)-1,2-dihydropyridine-3-carboxamide] | > 50% | 5880 nM
3 | – | – | O=C(CNC(=O)c1cccn(Cc2ccc(F)c(F)c2)c1=O)Nc1ccc2c(c1)C(=Cc1cccs1)C(=O)N2 (mixture of isomers) [IB36, (E/Z)-1-(3,4-difluorobenzyl)-2-oxo-N-(2-oxo-2-((2-oxo-3-(thiophe-2-ylmethylene)indolin-5-yl)amino)ethyl)-1,2-dihydropyridine-3-carboxamide] | 19% | –
4 | – | – | O=C(CCNC(=O)c1cccn(Cc2ccc(F)c(F)c2)c1=O)Nc1ccc2c(c1)/C(=C/c1cnc[nH]1)C(=O)N2 [DD21, (Z)—N-(3-((3-((1H-imidazol-5-yl)methylene)-2-oxoindolin-5-yl)amino)-3-oxopropyl)-1-(3,4-difluorobenzyl)-2-oxo-1,2-dihydropyridine-3-carboxamide] | > 50% | –
5 | – | – | O=C(CCNC(=O)c1cccn(Cc2ccc(F)c(F)c2)c1=O)Nc1ccc2c(c1)/C(=C/c1cccs1)C(=O)N2 [DD22, (E/Z)-1-(3,4-difluorobenzyl)-2-oxo-N-(3-oxo-3-((2-oxo-3-(thiophen-2-ylmethylene)indolin-5-yl)amino)propyl)-1,2-dihydropyridine-3-carboxamide] | > 50% | 1340 nM
6 | – | – | O=C(CCNC(=O)c1cccn(Cc2ccc(F)c(F)c2)c1=O)Nc1ccc2c(c1)/C(=C/c1ccc(F)cc1)C(=O)N2 [DD23, (Z)-1-(3,4-difluorobenzyl)-N-(3-((3-(4-fluorobenzylidene)-2-oxoindolin-5-yl)amino)-3-oxopropyl)-2-oxo-1,2-dihydropyridine-3-carboxamide] | 15% | –
7 | – | – | O=C(CCNC(=O)c1cccn(Cc2ccc(F)c(F)c2)c1=O)Nc1ccc2c(c1)/C(=C/c1ncc[nH]1)C(=O)N2 [DD25, (Z/E)-N-(3-((3-((1H-imidazol-2-yl)methylene)-2-oxoindolin-5-yl)amino)-3-oxopropyl)-1-(3,4-difluorobenzyl)-2-oxo-1,2-dihydropyridine-3-carboxamide] | 47% | –
8 | – | – | O=C(CCCNC(=O)c1cccn(Cc2ccc(F)c(F)c2)c1=O)Nc1ccc2c(c1)/C(=C/c1cnc[nH]1)C(=O)N2 [DF8, (Z)-N-(4-((3-((1H-imidazol-5-yl)methylene)-2-oxoindolin-5-yl)amino)-4-oxobutyl)-1-(3,4-difluorobenzyl)-2-oxo-1,2-dihydropyridine-3-carboxamide] | > 50% | –
9 | 50 ± 2.8 nM | 15 ± 1.2 nM | CO[C@H]1C[C@@H]2CC[C@@H](C)[C@@](O)(O2)C(=O)C(=O)N2CCCC[C@H]2C(=O)O[C@H]([C@H](C)C[C@@H]2CC[C@@H](OCCO)[C@H](OC)C2)CC(=O)[C@H](C)/C=C(\C)[C@@H](O)[C@@H](OC)C(=O)[C@H](C)C[C@H](C)/C=C/C=C/C=C/1C [Everolimus, reference compound] | – | –
10 | – | – | O=C(CNC(=O)c1cccn(Cc2ccc(F)c(F)c2)c1=O)Nc1ccc2c(c1)CC(=O)N2 [IB32, 1-(3,4-difluorobenzyl)-2-oxo-N-(2-oxo-2-((2-oxoindolin-5-yl)amino)ethyl)-1,2-dihydropyridine-3-carboxamide] | > 50% | 6680 nM
11 | – | – | O=C1Nc2ccc(NC(=O)c3cccn(Cc4ccc(F)c(F)c4)c3=O)cc2/C1=C/c1cnc[nH]1 [JJ31, (Z)—N-(3-((1H-imidazol-5-yl)methylene)-2-oxoindolin-5-yl)-1-(3,4-difluorobenzyl)-2-oxo-1,2-dihydropyridine-3-carboxamide] | > 50% | 512 nM
